Data: US20040023984A1, “Compounds for the treatment of alzheimer's disease” (priority 1987, published 2004)

Key:
cholinesterase = details: relative to galanthamine; cited from earlier work
[1] = test system: respiration and heart activity; details: relative to galanthamine; cited from earlier work
[2] = 3 mg/kg; cited from earlier work
acetylcholinesterase [3] = target: T1, acetylcholinesterase (Homo sapiens, UniProt P22303); assay: Acetylcholinesterase Inhibition Assay (other cholinesterase activity tests, may be less reliable); assay type: biochemical; details: results may be less reliable
T1 sequence (P22303 32-614, species assumed): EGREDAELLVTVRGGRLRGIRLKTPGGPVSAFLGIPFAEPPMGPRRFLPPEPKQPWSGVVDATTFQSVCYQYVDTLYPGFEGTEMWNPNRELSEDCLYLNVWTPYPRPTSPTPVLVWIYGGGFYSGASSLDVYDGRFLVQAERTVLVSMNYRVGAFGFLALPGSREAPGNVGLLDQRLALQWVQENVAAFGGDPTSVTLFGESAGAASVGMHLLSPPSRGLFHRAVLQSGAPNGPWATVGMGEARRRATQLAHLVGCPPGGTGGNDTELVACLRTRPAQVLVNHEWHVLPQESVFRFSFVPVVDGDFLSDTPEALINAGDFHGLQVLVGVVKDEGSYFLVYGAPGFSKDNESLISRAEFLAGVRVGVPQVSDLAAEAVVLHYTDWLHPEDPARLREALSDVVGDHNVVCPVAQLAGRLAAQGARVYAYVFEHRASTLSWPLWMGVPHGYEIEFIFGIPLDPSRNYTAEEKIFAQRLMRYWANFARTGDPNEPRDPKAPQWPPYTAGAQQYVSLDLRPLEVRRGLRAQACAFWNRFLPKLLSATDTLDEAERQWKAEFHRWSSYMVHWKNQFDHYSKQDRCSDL

[4] = test system: nucleas basalis-lesioned animals; assay: Nucleus basalis model, passive avoidance in shuttle box; assay type: in vivo, mice
Description: The following test provides a good animal model for Alzheimer's disease in humans: A selective lesion is placed in a subcortical nucleus (nucleus basalis of Meynert) with a resultant cortical cholinergic deficiency, similar in magnitude to that seen in early to moderate stage Alzheimer's disease. Numerous behavioral deficits, including the inability to learn and retain new information, characterizes this lesion. Drugs that can normalize these abnormalities would have a reasonable expectation of efficacy in Alzheimer's disease. Haroutunian, V, Kanof P, Davis, K L: Pharmacological alleviations of cholinergic-lesion-induced memory defects in rats. Life Sciences, 37:945-952 (1985).
(§1) Galanthamine n-butyl carbamate was tested in the nucleus basalis model for galanthamine discussed in the Hartounian et al paper noted above. In the test, mice were given the drug three and ½ hours before two learning trials in a shuttle box. They are placed in the lighted compartment and receive an electric footshock when they cross into the preferred side, the dark. The next day, they are again placed in the lighted compartment and the time to enter the dark is noted. The latency to enter the dark compartment is the basis for this figure. […] Below 50 mg/kg no side effects were noted.

acetylcholinesterase [5] = target: T1, acetylcholinesterase; assay: Inhibition of acetylcholinesterase, procedure of Ellman (acetylthiocholine substrate, photometric); assay type: biochemical
Protocol: The anticholinesterase activity of the compounds prepared in the above examples was assayed by an assay for inhibition of acetylcholinesterase following the procedure of G. Ellman, […], 7:88-95 (1961) Acetylthiocholine serves as substrate since it acts like acetylcholine. Acetylcholinesterase cleaves it to thiocholine and acetate which react with dithiobisnitrobenzoate to form a yellow color which is measured photometrically.
This assay was carried out at dilution of 10^−5 molar
The compounds were tested in the assay described after Example 5 but at different concentrations. The results obtained were as follows:
Further compounds were prepared by methods analogous to those described above and were tested in a cholinesterase assay as described above.

mice = assay: Cholinergic side effects in mice at high doses; assay type: in vivo
Protocol: as §1

normal mice = assay: Passive avoidance shuttle box test using normal mice; assay type: in vivo
Protocol: as §1
In a similar test using normal mice, the mice remained in the light (less preferred) side of the shuttle box for over six minutes at the best dose (0.1 mg/kg) as compared to a best dose result of about 90 seconds for the nucleas basalis-lesioned animals.

[6] = test system: scopolamine induced memory deficit; assay: Scopolamine dementia dark avoidance test (passive avoidance); assay type: in vivo, male CFW mice; details: for # > CO/n / % > CO / Mean Latency: Table 2, cut-off 41 seconds
Protocol: Furnished data on the effects of these compound on cholinesterase activity were used to determine doses for testing. […] The two other compounds were tested at 1,3 and 10 mg/kg sc and did antagonize the scopolamine induced deficit.
Training and testing of passive avoidance were conducted in a two-compartment (light/dark) test cage. On the training day, mice were individually placed in the light half of the cage and after entering the dark compartment, were administered a 3 sec 0.4 mA footshock. They were then removed from the test chamber and returned to their home cages. Twenty-four hours later, the animals were again placed in the lighted half of the test cage and the latency to enter the dark compartment was measured.
All animals in each group of 15 naive male CFW mice were injected twice subcutaneously. Thirty minutes prior to training, animals were administered 3 mg/kg scopolamine HBr or its 0.9% NaCl vehicle. Five minutes prior to training, independent groups were administered one of three doses of the test compounds or the distilled water vehicle. One group in each experiment received vehicle twice, another group received scopolamine and the dH2O vehicle; the remaining groups received scopolamine and a test compound.
A cutoff value (CO), defined as the second-longest latency in the scopolamine/vehicle treated group, was used to determine whether a compound was active. If 20% or more of the animals in a treatment group had latencies greater than the CO value, the compound was considered active at that dose.
The three compounds were tested in two separate experiments; the results are presented below in Tables 1 and 2. Doses considered active are marked with an asterisk (*).

EEG—recorded activity = details: relative to galanthamine; cited from earlier work

**Q.** Which “anti-cholinesterase activity as % of that of galanthamine” value (cholinesterase) does the source give for `COc1ccc2c3c1OC1CC(=O)C=C[C@@]31CCN(C)C2` (stereo partly drawn) [Narwedine, narwedine] here?
**A.** Its value is “less than 1%”.

**Q.** And the “cholinergic effects on respiration and heart activity, lower than galanthamine” value [1]?
**A.** Its value is 50-80%.

**Q.** What about the anticurare activity [2] of the same compound?
**A.** Its anticurare activity is “weak”.

**Q.** With `COc1ccc2c3c1O[C@H]1C[C@H](O)C=C[C@@]31CCN(C)C2` [epigalanthamine] as the compound, how does the “anti-cholinesterase activity as % of that of galanthamine” value (cholinesterase) read?
**A.** Its value is 10%.

**Q.** Which results are given for `CCCCNC(=O)O[C@@H]1C=CC23CCN(C)Cc4ccc(OC)c(c42)O[C@@H]3C1` (stereo partly drawn) [galanthamine n-butyl carbamate]?
**A.** % Inhibition at 10^−6 (acetylcholinesterase [3]; 10^−6): 37%; % Inhibition at 10^−7 (acetylcholinesterase [3]; 10^−7): 9%; % Inhibition at −10^−5 (acetylcholinesterase [3]; −10^−5): 44%; best dose result, latency to enter the dark compartment ([4]; nucleas basalis-lesioned animals, best dose): about 90 seconds; passive avoidance result compared with galanthamine ([4]; nucleus basalis model, mice): comparable with those obtained with galanthamine; best dose in passive avoidance test ([4]; nucleus basalis model, mice, drug given three and ½ hours before learning trials): 0.5 mg/kg; inhibition of acetylcholinesterase at concentration 10^−5 (acetylcholinesterase [5]; 10^−5 molar): 75; dose below which no side effects were noted (mice; mice): Below 50 mg/kg; side effects and lethality (mice; two mice given 100 mg/kg): showed cholinergic side effects but neither died; best dose in passive avoidance test (normal mice): 0.1 mg/kg; time mice remained in the light side of the shuttle box (normal mice; best dose (0.1 mg/kg)): over six

**Q.** For `COc1ccc2c3c1OC1CC(O)CC[C@@]31CCN(C)C2` (stereo partly drawn) [lycoramine], which “antagonism of scopolamine induced memory deficit” value ([6]; 10 mg/kg sc) is on record?
**A.** The value was “active”.

**Q.** What about the “# > CO/n” value ([6]; scopolamine + 1 mg/kg sc) of the same compound?
**A.** The value was 1/15.

**Q.** And the “% > CO” value ([6]; scopolamine + 1 mg/kg sc)?
**A.** The value was 7%.

**Q.** And the “Mean Latency” value ([6]; scopolamine + 1 mg/kg sc)?
**A.** Its value is 26 s.

**Q.** What about the “# > CO/n” value ([6]; scopolamine + 3 mg/kg sc) of the same compound?
**A.** Its value is 0/15.

**Q.** What about the “Mean Latency” value ([6]; scopolamine + 3 mg/kg sc) of the same compound?
**A.** Its value is 19 s.

**Q.** What about the “% > CO” value ([6]; scopolamine + 3 mg/kg sc, * = dose considered active) of the same compound?
**A.** The value was 0%.

**Q.** And the “# > CO/n” value ([6]; scopolamine + 10 mg/kg sc)?
**A.** Its value is 4/15.

**Q.** What about the “Mean Latency” value ([6]; scopolamine + 10 mg/kg sc) of the same compound?
**A.** The value was 48 s.

**Q.** And the “% > CO” value ([6]; scopolamine + 10 mg/kg sc, * = dose considered active)?
**A.** Its value is 27* %.

**Q.** What about the “concentration required to stimulate EEG-recorded activity, times that required for galanthamine” value (EEG—recorded activity) of the same compound?
**A.** Its value is “about five”.

**Q.** And the inhibition at 10 µM (acetylcholinesterase [5]; 10^−5 M, further compounds, read-out: cholinesterase inhibition at 10^−5 M)?
**A.** Its inhibition at 10 µM is 30%.
